Assay results: ChEMBL document CHEMBL1201862, “PubChem BioAssay data set” (2004)
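How tested: cells in 96-well plates exposed to compound for 48 hours at five concentrations. GI50 marks 50% less growth.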 The source made the active and inactive calls. Rule as the data show it: active = GI50 up to about 1.1 µM and inactive = higher.

Assays:
Experiment in all cases: NCI-60 cell line screen, 48 h
OVCAR-4 = system: OVCAR-4
SF-539 = system: SF-539
IGROV-1 = system: IGROV-1
LOX IMVI = system: LOX IMVI
EKVX = system: EKVX
MOLT-4 = system: MOLT-4
HOP-62 = system: HOP-62
SK-MEL-28 = system: SK-MEL-28
SK-OV-3 = system: SK-OV-3
SK-MEL-5 = system: SK-MEL-5
SN12C = system: SN12C
A549 = system: A549
OVCAR-5 = system: OVCAR-5
SR = system: SR
SK-MEL-2 = system: SK-MEL-2
K562 = system: K562
TK-10 = system: TK-10
SNB-19 = system: SNB-19
HL-60 = system: HL-60

Measured: GI50

COc1ccc(NC(=O)CC(=O)n2nc(-c3ccccc3)c(/N=N/c3ccccc3C(=O)O)c2-c2ccccc2)cc1
inactive: OVCAR-4 92.5 µM | SF-539 55.1 µM | IGROV-1 83.4 µM | LOX IMVI > 100 µM | EKVX 34.6 µM | MOLT-4 40.6 µM | HOP-62 30.1 µM | SK-MEL-28 74.5 µM | SK-OV-3 15.9 µM | SK-MEL-5 > 100 µM | SN12C > 100 µM | A549 > 100 µM | OVCAR-5 > 100 µM | SR 62.2 µM | SK-MEL-2 > 100 µM | K562 52.7 µM | TK-10 > 100 µM | SNB-19 63 µM

COc1ccc(/C(Cl)=C/c2ccc(Cl)c(Cl)c2)cc1
inactive: OVCAR-4 41.5 µM | HL-60 17.3 µM | SF-539 43.7 µM | IGROV-1 38.1 µM | EKVX 20.2 µM | MOLT-4 16.2 µM | HOP-62 27.5 µM | SK-MEL-28 38.2 µM | SK-OV-3 37.8 µM | SK-MEL-5 18 µM | SN12C 29.4 µM | A549 22.4 µM | SR 18.9 µM | K562 35.1 µM | SNB-19 63.4 µM

COc1ccc2c(C(=O)O)cc3cc(OC)c(OC)cc3c2c1
inactive: HL-60 57.4 µM | SF-539 > 100 µM | IGROV-1 > 100 µM | LOX IMVI > 100 µM | EKVX > 100 µM | MOLT-4 > 100 µM | SK-MEL-28 > 100 µM | SK-OV-3 > 100 µM | SK-MEL-5 43.6 µM | SN12C > 100 µM | A549 > 100 µM | OVCAR-5 > 100 µM | SR > 100 µM | SK-MEL-2 > 100 µM | K562 > 100 µM | TK-10 > 100 µM | SNB-19 > 100 µM

O=[N+]([O-])c1ccc(/C=C/c2ccc(/C=C/c3ccc([N+](=O)[O-])cc3[N+](=O)[O-])cc2)c([N+](=O)[O-])c1
inactive: OVCAR-4 > 100 µM | HL-60 > 100 µM | SF-539 > 100 µM | IGROV-1 > 100 µM | EKVX > 100 µM | MOLT-4 > 100 µM | HOP-62 > 100 µM | SK-MEL-28 > 100 µM | SK-OV-3 > 100 µM | SK-MEL-5 > 100 µM | A549 > 100 µM | OVCAR-5 > 100 µM | SK-MEL-2 > 100 µM | K562 > 100 µM | TK-10 > 100 µM

COC1/C(=C\C(C)=O)c2ccccc2N1C(C)=O (configuration not stated)
inactive: OVCAR-4 > 100 µM | HL-60 > 100 µM | SF-539 > 100 µM | IGROV-1 > 100 µM | EKVX > 100 µM | MOLT-4 > 100 µM | HOP-62 > 100 µM | SK-MEL-28 > 100 µM | SK-OV-3 > 100 µM | SN12C > 100 µM | A549 > 100 µM | SR > 100 µM | SK-MEL-2 > 100 µM | K562 > 100 µM | SNB-19 > 100 µM

CO/N=C(\C(=O)Nn1cn[n+](CC(=O)[O-])c1)c1csc(N)n1
inactive: OVCAR-4 > 10 µM | HL-60 > 10 µM | IGROV-1 > 10 µM | LOX IMVI > 10 µM | EKVX > 10 µM | MOLT-4 > 10 µM | HOP-62 > 10 µM | SK-MEL-28 > 10 µM | SK-OV-3 > 10 µM | SK-MEL-5 > 10 µM | SN12C > 10 µM | A549 > 10 µM | SR > 10 µM | K562 > 10 µM | TK-10 > 10 µM

CC(=O)CC(=O)CCCC(=O)Nc1ccc(Cl)cc1C
inactive: OVCAR-4 > 100 µM | HL-60 > 100 µM | SF-539 > 100 µM | IGROV-1 > 100 µM | LOX IMVI > 100 µM | EKVX > 100 µM | MOLT-4 > 100 µM | SK-OV-3 > 100 µM | SK-MEL-5 > 100 µM | SN12C > 100 µM | A549 > 100 µM | OVCAR-5 > 100 µM | SK-MEL-2 > 100 µM | K562 > 100 µM | TK-10 > 100 µM | SNB-19 > 100 µM

COc1ccc(Br)c(CCCCC(=O)O)c1
inactive: OVCAR-4 > 100 µM | HL-60 > 100 µM | SF-539 > 100 µM | IGROV-1 > 100 µM | LOX IMVI > 100 µM | EKVX > 100 µM | MOLT-4 > 100 µM | HOP-62 > 100 µM | SK-MEL-28 > 100 µM | SK-OV-3 > 100 µM | SK-MEL-5 > 100 µM | SN12C > 100 µM | A549 > 100 µM | K562 > 100 µM | TK-10 > 100 µM | SNB-19 > 100 µM

O=S(=O)(O)CS(=O)(=O)OCCCl
inactive: OVCAR-4 > 100 µM | HL-60 > 100 µM | SF-539 > 100 µM | IGROV-1 > 100 µM | LOX IMVI > 100 µM | EKVX > 100 µM | MOLT-4 > 100 µM | HOP-62 > 100 µM | SK-MEL-28 > 100 µM | SK-OV-3 > 100 µM | SK-MEL-5 > 100 µM | SN12C > 100 µM | A549 > 100 µM | OVCAR-5 > 100 µM | SR > 100 µM | K562 > 100 µM | TK-10 > 100 µM | SNB-19 > 100 µM

O=C(CC1(O)C(=O)Nc2ccccc21)c1ccco1 (configuration not stated)
inactive: OVCAR-4 > 100 µM | HL-60 > 100 µM | SF-539 > 100 µM | IGROV-1 > 100 µM | LOX IMVI > 100 µM | EKVX > 100 µM | MOLT-4 > 100 µM | HOP-62 > 100 µM | SK-MEL-28 > 100 µM | SK-OV-3 > 100 µM | SK-MEL-5 > 100 µM | SN12C > 100 µM | A549 > 100 µM | OVCAR-5 > 100 µM | SK-MEL-2 > 100 µM | K562 > 100 µM | TK-10 > 100 µM | SNB-19 > 100 µM

N#Cc1c(NN)nc(NN)c(C#N)c1-c1ccccc1
inactive: OVCAR-4 > 100 µM | HL-60 > 100 µM | SF-539 > 100 µM | IGROV-1 > 100 µM | LOX IMVI > 100 µM | EKVX > 100 µM | MOLT-4 > 100 µM | HOP-62 > 100 µM | SK-MEL-28 > 100 µM | SK-OV-3 > 100 µM | SK-MEL-5 > 100 µM | SN12C > 100 µM | A549 > 100 µM | OVCAR-5 > 100 µM | SK-MEL-2 > 100 µM | K562 > 100 µM | TK-10 > 100 µM | SNB-19 > 100 µM

CCOC(=O)C/C(=N\c1cc(C)on1)N(CC)CC.[O-][Cl+3]([O-])([O-])O
inactive: SF-539 > 100 µM | IGROV-1 > 100 µM | EKVX > 100 µM | MOLT-4 > 100 µM | HOP-62 > 100 µM | SK-MEL-28 > 100 µM | SK-OV-3 > 100 µM | SK-MEL-5 > 100 µM | SN12C > 100 µM | A549 > 100 µM | OVCAR-5 > 100 µM | SR > 100 µM | SK-MEL-2 > 100 µM | K562 > 100 µM | TK-10 > 100 µM | SNB-19 > 100 µM
